In patent US8192962B2, “Processes for detecting toxic substances” (Daikin Industries, Ltd., priority 2001, dated 2012):

Test system: Transport facilitation protein genes
Experiment: DNA chip mRNA expression in yeast, transport facilitation protein genes (Table 5)
Format: cell-based, Saccharomyces cerevisiae S288C
Method in brief: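 S. cerevisiae S288C grown at 25° C in YPD were exposed in log phase for two hours to one toxic chemical at a growth-inhibiting, non-lethal concentration; untreated cells served as control. Poly(A) mRNA was reverse-transcribed with Cy3/Cy5-dUTP and hybridized to a whole-genome yeast DNA chip at 65° C for over 12 hours; values are fluorescence ratios versus untreated.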

O=[N+]([O-])c1cc[n+]([O-])c2ccccc12 [(5), 4-nitroquinolin-N-oxide]
The level of expressed mRNA in the presence of chemical substance/The level of expressed mRNA in the absence of chemical substance (yeast gene YBL030C): 0.7
The level of expressed mRNA in the presence of chemical substance/The level of expressed mRNA in the absence of chemical substance (yeast gene YBL099W): 1.0
The level of expressed mRNA in the presence of chemical substance/The level of expressed mRNA in the absence of chemical substance (yeast gene YBR052C): 1.4
The level of expressed mRNA in the presence of chemical substance/The level of expressed mRNA in the absence of chemical substance (yeast gene YBR068C): 1.4
The level of expressed mRNA in the presence of chemical substance/The level of expressed mRNA in the absence of chemical substance (yeast gene YBR127C): 1.4
The level of expressed mRNA in the presence of chemical substance/The level of expressed mRNA in the absence of chemical substance (yeast gene YBR132C): 0.8
The level of expressed mRNA in the presence of chemical substance/The level of expressed mRNA in the absence of chemical substance (yeast gene YBR207W): 1.7
The level of expressed mRNA in the presence of chemical substance/The level of expressed mRNA in the absence of chemical substance (yeast gene YBR293W): 0.8
The level of expressed mRNA in the presence of chemical substance/The level of expressed mRNA in the absence of chemical substance (yeast gene YBR294W): 1.4
The level of expressed mRNA in the presence of chemical substance/The level of expressed mRNA in the absence of chemical substance (yeast gene YBR295W): 0.8
The level of expressed mRNA in the presence of chemical substance/The level of expressed mRNA in the absence of chemical substance (yeast gene YBR298C): 1.4
The level of expressed mRNA in the presence of chemical substance/The level of expressed mRNA in the absence of chemical substance (yeast gene YCL025C): 0.9
The level of expressed mRNA in the presence of chemical substance/The level of expressed mRNA in the absence of chemical substance (yeast gene YCL038C): 1.2
The level of expressed mRNA in the presence of chemical substance/The level of expressed mRNA in the absence of chemical substance (yeast gene YCR024C-A): 0.9
The level of expressed mRNA in the presence of chemical substance/The level of expressed mRNA in the absence of chemical substance (yeast gene YCR037C): 1.3
The level of expressed mRNA in the presence of chemical substance/The level of expressed mRNA in the absence of chemical substance (yeast gene YCR098C): 1.4
The level of expressed mRNA in the presence of chemical substance/The level of expressed mRNA in the absence of chemical substance (yeast gene YDL128W): 1.0
The level of expressed mRNA in the presence of chemical substance/The level of expressed mRNA in the absence of chemical substance (yeast gene YDL198C): 0.7
The level of expressed mRNA in the presence of chemical substance/The level of expressed mRNA in the absence of chemical substance (yeast gene YDL210W): 0.9
The level of expressed mRNA in the presence of chemical substance/The level of expressed mRNA in the absence of chemical substance (yeast gene YDL245C): 1.3
The level of expressed mRNA in the presence of chemical substance/The level of expressed mRNA in the absence of chemical substance (yeast gene YDR038C): 0.9
The level of expressed mRNA in the presence of chemical substance/The level of expressed mRNA in the absence of chemical substance (yeast gene YDR039C): 1.3
The level of expressed mRNA in the presence of chemical substance/The level of expressed mRNA in the absence of chemical substance (yeast gene YDR086C): 1.0
The level of expressed mRNA in the presence of chemical substance/The level of expressed mRNA in the absence of chemical substance (yeast gene YDR270W): 1.0
The level of expressed mRNA in the presence of chemical substance/The level of expressed mRNA in the absence of chemical substance (yeast gene YDR298C): 1.3
The level of expressed mRNA in the presence of chemical substance/The level of expressed mRNA in the absence of chemical substance (yeast gene YDR342C): 1.6
The level of expressed mRNA in the presence of chemical substance/The level of expressed mRNA in the absence of chemical substance (yeast gene YDR343C): 1.3
The level of expressed mRNA in the presence of chemical substance/The level of expressed mRNA in the absence of chemical substance (yeast gene YDR345C): 1.3
The level of expressed mRNA in the presence of chemical substance/The level of expressed mRNA in the absence of chemical substance (yeast gene YDR387C): 0.9
The level of expressed mRNA in the presence of chemical substance/The level of expressed mRNA in the absence of chemical substance (yeast gene YDR497C): 0.7
The level of expressed mRNA in the presence of chemical substance/The level of expressed mRNA in the absence of chemical substance (yeast gene YEL027W): 1.0
The level of expressed mRNA in the presence of chemical substance/The level of expressed mRNA in the absence of chemical substance (yeast gene YEL063C): 1.2
The level of expressed mRNA in the presence of chemical substance/The level of expressed mRNA in the absence of chemical substance (yeast gene YEL065W): 1.4
The level of expressed mRNA in the presence of chemical substance/The level of expressed mRNA in the absence of chemical substance (yeast gene YER053C): 0.6
The level of expressed mRNA in the presence of chemical substance/The level of expressed mRNA in the absence of chemical substance (yeast gene YFL011W): 1.3
The level of expressed mRNA in the presence of chemical substance/The level of expressed mRNA in the absence of chemical substance (yeast gene YFL041W): 1.2
The level of expressed mRNA in the presence of chemical substance/The level of expressed mRNA in the absence of chemical substance (yeast gene YFL050C): 1.0
The level of expressed mRNA in the presence of chemical substance/The level of expressed mRNA in the absence of chemical substance (yeast gene YFL054C): 1.3
The level of expressed mRNA in the presence of chemical substance/The level of expressed mRNA in the absence of chemical substance (yeast gene YGL006W): 1.0
The level of expressed mRNA in the presence of chemical substance/The level of expressed mRNA in the absence of chemical substance (yeast gene YGL008C): 0.8
The level of expressed mRNA in the presence of chemical substance/The level of expressed mRNA in the absence of chemical substance (yeast gene YGL104C): 1.0
The level of expressed mRNA in the presence of chemical substance/The level of expressed mRNA in the absence of chemical substance (yeast gene YGL167C): 1.2
The level of expressed mRNA in the presence of chemical substance/The level of expressed mRNA in the absence of chemical substance (yeast gene YGL255W): 1.4
The level of expressed mRNA in the presence of chemical substance/The level of expressed mRNA in the absence of chemical substance (yeast gene YGR055W): 1.3
The level of expressed mRNA in the presence of chemical substance/The level of expressed mRNA in the absence of chemical substance (yeast gene YGR065C): 1.2
The level of expressed mRNA in the presence of chemical substance/The level of expressed mRNA in the absence of chemical substance (yeast gene YGR082W): 0.9
The level of expressed mRNA in the presence of chemical substance/The level of expressed mRNA in the absence of chemical substance (yeast gene YGR096W): 1.2
The level of expressed mRNA in the presence of chemical substance/The level of expressed mRNA in the absence of chemical substance (yeast gene YGR138C): 0.8
The level of expressed mRNA in the presence of chemical substance/The level of expressed mRNA in the absence of chemical substance (yeast gene YGR191W): 0.8
The level of expressed mRNA in the presence of chemical substance/The level of expressed mRNA in the absence of chemical substance (yeast gene YGR197C): 0.7
The level of expressed mRNA in the presence of chemical substance/The level of expressed mRNA in the absence of chemical substance (yeast gene YGR224W): 1.4
The level of expressed mRNA in the presence of chemical substance/The level of expressed mRNA in the absence of chemical substance (yeast gene YGR260W): 0.8
